In patent publication US8853424B2 (Japan Science and Technology Agency, priority 2008, dated 2014):

Assays:
[1] = tested on: Truncated N-terminal huntington 150 Q-EGFP-Neuron 2a cells; test: Measurement of x-Fold (polyglutamine aggregation inhibitory activity); format: cell-based
Method: In the present invention, the polyglutamine aggregation inhibitory activity (x-Fold) can be measured, for example, by the method described in the Example.
The number of the aggregated cells, and the total number of cells were counted by Array Scan V T1 (manufactured by Cellomics, Pittuburg, USA), and the ratio of the aggregated cells to the total number of cells was determined (x-Fold). […]

[2] = tested on: transglutaminase (TGase); test: Measurement of TG (TGase inhibitory activity, monodansyl cadaverine / N,N-dimethylcasein fluorescence, FDSS 3000); format: biochemical
Method: For example, the method described in the Example can be performed.
The compound of the present invention (10 mM, 1 μL) was taken in a 96-well plate (Nunc, 96 Well Black Plate with Clear Bottom), an enzyme reaction solution (100 mM HEPES-NaOH, pH 7.5, 1 mM CaCl2, 20 μM monodansyl cadaverine, 0.05 mg/mL N,N-dimethylcasein, 5 μg/mL TGase) (0.1 ml) was added and the mixture was sufficiently mixed without making foams. The mixture was set on a fluorescence drug screening system FDSS 3000 (Hamamatsu Photonics K.K.), and changes in the fluorescence wavelength per unit time at 340 nm were measured, based on which the TGase inhibitory activity of the compound of the present invention was calculated. As a control, change in the fluorescence when 1 μL of DMSO (dimethyl sulfoxide) was added instead of the compound of the present invention was taken as 100, and TG50 was when the activity decreased to half due to the compound of the present invention.

[3] = polyglutamine aggregation, Truncated N-terminal huntington 150 Q-EGFP-Neuron 2a cells
[4] = ratio of aggregated cells to total number of cells, compound 20 μM, 20 hr, almost 1 without compound, smaller = stronger inhibition
[5] = TGase activity with compound (10 mM, 1 μL in 0.1 ml enzyme reaction solution), DMSO control taken as 100
[6] = TGase inhibitory activity measurement, unit not given
[7] = polyglutamine aggregation inhibitory activity, Table 1
[8] = TGase inhibitory activity value, Table 1

Row | SMILES | TGase activity remaining (% of DMSO control = 100) [2, 5] | TGase activity remaining (% of DMSO control = 100) [2, 8] | x-Fold [1, 4] | x-Fold [1, 7] | further results
1 | NCCOB(c1ccc(Oc2ccccc2)cc1)c1ccc(Oc2ccc(B(OCCN)c3ccc(Oc4ccccc4)cc3)cc2)cc1 [Example 398, bis(4,4′-(phenoxyphenyl-aminoethoxyboryl)phenyl)ether] |  |  | 0.88 |  | x-Fold [1, 3]: 0.88
2 | FC(F)(F)c1ccc(C(OB(c2ccccc2)c2cc(B(OC(c3ccc(C(F)(F)F)cc3)c3ccccn3)c3ccccc3)cc(B(OC(c3ccc(C(F)(F)F)cc3)c3ccccn3)c3ccccc3)c2)c2ccccn2)cc1 (stereo not drawn) [Example 132, 1,3,5-tri(2-pyridyl-4-trifluoromethylphenylmethoxyphenylboryl)benzene] |  |  | 0.95 | 0.95 | 
3 | NCCOB(c1ccccc1)c1cccc(COCCc2ccccc2B(OCCN)c2ccccc2)c1 [Example 369] |  |  | 1.10 | 1.10 | 
4 | Cc1ccc(B(OC(=O)C(N)CC(N)=O)c2ccc(C)c(Cl)c2)cc1Cl (stereo not drawn) [Example 448] |  |  | 0.95 |  | 
5 | OB(c1ccccc1)c1cccc(COCc2ccccc2B(O)c2ccccc2)c1 [Example 124, (2-phenylhydroxyborylbenzyl)(3-(phenylhydroxyboryl)benzyl)ether] |  |  | 0.96 |  | x-Fold ([1]; polyglutamine aggregation inhibitory activity, Table 1, listed as 656): 0.96
6 | NCC(=O)OB(c1ccccc1)c1ccc(Oc2ccc(B(OC(=O)CN)c3ccccc3)cc2)cc1 [Example 169, di((phenylglycine-O,N boryl)phenyl)ether] |  |  | 0.78 |  | 
7 | CN(C)CCOB(c1ccccc1)c1cccc(COCc2cccc(B(OCCN(C)C)c3ccccc3)c2)c1 [Example 172, bis(3,3′(phenyldimethylaminoethoxyboryl)benzyl)ether] |  |  | 1.22 |  | x-Fold ([1]; polyglutamine aggregation inhibitory activity, Table 1, listed as 2024): 1.22
8 | NC(COB(c1ccccc1)c1ccccc1)Cc1ccccc1 [Example 212, diphenyl(R) 2-benzyl-2-aminoethyl borinate] |  |  | 0.75 |  | x-Fold ([1]; polyglutamine aggregation inhibitory activity, Table 1, listed as 3073): 0.75
9 | OB(c1cccs1)c1cccs1 [Example 253] |  |  | 1.11 |  | 
10 | OB(O)c1cccc2ccccc12 [Example 324, naphthaleneboronic acid] |  |  | 0.76 | 0.76 | 
11 | NC(COB(c1ccccc1)c1ccccc1)Cc1ccccc1 [Example 213, diphenyl(S) 2-benzyl-2-aminoethyl borinate] |  |  | 1.00 |  | x-Fold ([1]; polyglutamine aggregation inhibitory activity, Table 1, listed as 3075): 1.00
12 | Cc1ccc(B(OCCN(C)C)c2ccc(C)c(Cl)c2)cc1Cl [Example 207, di(3-chloro-4-methylphenyl)dimethylaminoethylborinate] |  |  | 0.91 | 0.91 | 
13 | Cc1ccc(B(OCC(N)Cc2ccccc2)c2ccc(C)c(Cl)c2)cc1Cl (stereo not drawn) [Example 208, di(3-chloro-4-methylphenyl)-2-benzyl-2-aminoethylborinate] |  |  | 0.67 | 0.67 | 
14 | Cc1ccc(Cl)cc1B(OCCNCc1ccccc1)c1cc(Cl)ccc1C [Example 164, di(3-chloro-6-methylphenyl)benzylaminoethylborinate] |  |  | 0.67 |  | 
15 | Cc1ccc(Cl)cc1B(OCCN)c1cc(Cl)ccc1C [Example 166, di(3-chloro-6-methylphenyl)aminoethylborinate] |  |  | 0.70 |  | 
16 | OB(c1ccc(C(F)(F)F)cc1)c1ccc(C(F)(F)F)cc1 [Example 230, di(trifluoromethylphenyl)borinic acid] |  |  | 1.03 |  | x-Fold ([1]; polyglutamine aggregation inhibitory activity, Table 1, listed as 4138): 1.03

Now from value to compound, other results behind:

Row | TGase activity remaining (% of DMSO control = 100) [2, 5] | TGase activity remaining (% of DMSO control = 100) [2, 8] | SMILES | x-Fold [1, 4] | x-Fold [1, 7] | further results
17 | 73 |  | Cc1ccc(B(OCCN(C)C)c2ccc(Oc3ccc(B(OCCN(C)C)c4ccc(C)cc4)cc3)cc2)cc1 [Example 446, bis(4,4′-(tolyldimethylaminoethoxyboryl)phenyl)ether] | 0.85 |  | x-Fold [1, 3]: 0.85; TGase activity remaining (% of DMSO control = 100) [2, 6]: 73
18 | 87 | 87 | CC(C)(N)COB(c1ccc(Cl)c(F)c1)c1ccc(Cl)c(F)c1 [Example 236, di(4-chloro-3-fluorophenyl) 2-amino-2-methyl-propyl-borinate] | 1.10 | 1.10 | 
19 | 97 | 97 | OB(c1ccc(COCc2ccc(B(O)c3cccc4ccccc34)cc2)cc1)c1cccc2ccccc12 [Example 141, bis(4,4′-(1-naphthylhydroxyboryl)benzyl)ether] | 0.92 | 0.92 | 
20 | 103 | 103 | O=C(O)CC1[NH2+][B-](c2ccccc2)(c2ccccc2)OC1=O (stereo not drawn) [Example 257] | 0.98 | 0.98 | 
21 | 112 | 112 | Cc1cc(B(O)c2ccccc2)ccc1B(O)c1ccccc1 [Example 358, 2,5-di(phenylhydroxyboryl)toluene] | 0.91 | 0.91 | 
22 | 100 |  | Cc1c(Cl)cccc1B(O)c1cccc(Cl)c1C [Example 200, di(3-chloro-2-methylphenyl)borinic acid] | 0.92 |  | 
23 | 119 | 119 | NCCOB(c1ccccc1)c1ccc(COCc2ccc(B(OCCN)c3ccc(COCc4ccc(B(OCCN)c5ccccc5)cc4)cc3)cc2)cc1 [Example 189, bis((4,4′-phenylaminoethoxyboryl)benzyloxybenzyl)aminoethoxyborane] | 0.94 | 0.94 | 
24 | 102 | 102 | Fc1ccc(NCCOBc2cccc(COCc3cccc(BOCCNc4ccc(F)cc4)c3)c2)cc1 [Example 337, bis(3-(4-fluorophenylaminoethoxyboryl)benzyl)ether] | 0.98 | 0.98 | 
25 | 92 |  | Cc1ccc(B(OC(=O)C(N)CC(N)=O)c2ccc(COCc3ccc(B(OC(=O)C(N)CC(N)=O)c4ccc(C)cc4)cc3)cc2)cc1 (stereo not drawn) [Example 449, bis(4,4′-(tolylasparagineboryl)benzyl)ether] | 0.89 |  | x-Fold [1, 3]: 0.89; TGase activity remaining (% of DMSO control = 100) [2, 6]: 92
26 | 142 |  | NCCC(N)C(=O)OB(c1ccccc1)c1ccccc1 (stereo not drawn) [Example 178] | 0.89 |  | x-Fold ([1]; polyglutamine aggregation inhibitory activity, Table 1, listed as 2039): 0.89; TGase activity remaining (% of DMSO control = 100) ([2]; TGase inhibitory activity value, Table 1, listed as 2039): 142
27 | 76 |  | CN(C)CCOB(c1ccc(C(F)(F)F)cc1)c1ccc(C(F)(F)F)cc1 [Example 69, 2-dimethylaminoethyl bis(4-trifluoromethylphenyl)borinate] | 1.02 |  | x-Fold ([1]; polyglutamine aggregation inhibitory activity, Table 1, listed as 5034): 1.02; TGase activity remaining (% of DMSO control = 100) ([2]; TGase inhibitory activity value, Table 1, listed as 5034): 76
28 | 114 | 114 | NCCC(N)C(=O)OB(c1ccc(Cl)c(F)c1)c1ccc(Cl)c(F)c1 (stereo not drawn) [Example 95, di(3-fluoro-4-chlorophenyl)(2,4-diaminolactonate-O,N)borane] | 0.88 | 0.88 | 
29 | 61 |  | OB(c1ccsc1)c1ccc2sc3ccc(B(O)c4ccsc4)cc3c2c1 [Example 406, 2,8-di(3-thiophenylhydroxyboryl)dibenzothiophene] | 0.85 |  | x-Fold [1, 3]: 0.85; TGase activity remaining (% of DMSO control = 100) [2, 6]: 61
30 | 113 | 113 | NCCOB(c1ccc(COCc2cccc(B(OCCN)c3cc(F)c(F)c(F)c3)c2)cc1)c1cc(F)c(F)c(F)c1 [Example 354, (3-(3′,4′,5′-trifluorophenylaminoethoxyboryl)benzyl)(4-(3′,4′,5′-trifluorophenylaminoethoxyboryl)benzyl)ether] | 1.09 | 1.09 | 
31 | 111 | 111 | CCCCB(O)c1ccccc1 [Example 108, normal-butyl phenyl borinic acid] | 1.00 | 1.00 | 
32 | 33 | 33 | NCCSB(c1ccccc1)c1ccccc1 [Example 151, 2-aminoethylthiodiphenylborane] | 0.87 | 0.87 | 
33 | 99 | 99 | CCC(N)COB(c1ccccc1)c1ccccc1 (stereo not drawn) [Example 228, diphenyl 2-aminobutylborinate] | 0.98 | 0.98 | 
